One test deals with T1, human GCGR (Homo sapiens, UniProt P47871).
T1 construct: expressed in transfected cells; growth medium holds Blasticidin and Hygromycin
Description: cAMP activity assay at the Glucagon receptor (GCGR). Format: cell-based. To be noted: for hGCGR/hGLP1R (hTone): ratio of GCGR EC50 to GLP1R EC50. The procedure, abridged:
(§1)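 Peptides serially diluted from DMSO (10 points) and added to frozen-stock cells bearing human GLP1R (10,000 cells/well) or GCGR (30,000 cells/well), 1 h at RT, dark. EC50 by four-parameter logistic fit of HitHunter cAMPXS luminescence, read following overnight RT incubation.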

A further test has as its target T2, human GLP1R (Homo sapiens, UniProt P43220).
T2 construct: expressed in transfected cells; growth medium holds Blasticidin and Hygromycin
Description: cAMP activity assay at the GLP-1 receptor (GLP1R). Format: cell-based. The procedure, abridged: as §1

The mark [1] stands for this setting: summary statement: EC50 at each of the glucagon and GLP-1 receptors, read-out: EC50 at the glucagon receptor.
The mark [2] stands for this setting: cells expressing human GLP1R, cAMP production, buffer with or without 20% human serum (not stated which), read-out: GLP1R EC50 human.
Where [3] appears, read: summary statement: EC50 at each of the glucagon and GLP-1 receptors, read-out: EC50 at the GLP-1 receptor.

Read-outs that look alike come from different tables or passages of the source. Numbered stars: 1 amine (or outer) side, 2 acyl side, 3 side chain; on linkers, the order of the positions; unused ones are H or OH. Square brackets hold non-standard residues; d marks the D form. Side chains are listed from the residue outwards. Peptide text beside a SMILES is read from it. * marks the point of attachment. Phe(4-CH2NH2) = NCc1ccc(C[C@H](N)C(=O)O)cc1; C18 diacid = O=C(O)CCCCCCCCCCCCCCCCC(=O)*; C16 diacid = O=C(O)CCCCCCCCCCCCCCC(=O)*; γGlu = O=C(O)[C@H](CCC(=O)[*:2])N[*:1]; Met(O2) = CS(=O)(=O)CC[C@H](N)C(=O)O; αMeD = C[C@](N)(CC(=O)O)C(=O)O; AEEA = NCCOCCOCC(=O)O; Aib = CC(C)(N)C(=O)O

The values below come from patent US11566057B2, “Long-acting co-agonists of the glucagon and GLP-1 receptors” (Merck Sharp & Dohme Corp., priority 2017, dated 2023).

T2 sequence (P43220 24-463): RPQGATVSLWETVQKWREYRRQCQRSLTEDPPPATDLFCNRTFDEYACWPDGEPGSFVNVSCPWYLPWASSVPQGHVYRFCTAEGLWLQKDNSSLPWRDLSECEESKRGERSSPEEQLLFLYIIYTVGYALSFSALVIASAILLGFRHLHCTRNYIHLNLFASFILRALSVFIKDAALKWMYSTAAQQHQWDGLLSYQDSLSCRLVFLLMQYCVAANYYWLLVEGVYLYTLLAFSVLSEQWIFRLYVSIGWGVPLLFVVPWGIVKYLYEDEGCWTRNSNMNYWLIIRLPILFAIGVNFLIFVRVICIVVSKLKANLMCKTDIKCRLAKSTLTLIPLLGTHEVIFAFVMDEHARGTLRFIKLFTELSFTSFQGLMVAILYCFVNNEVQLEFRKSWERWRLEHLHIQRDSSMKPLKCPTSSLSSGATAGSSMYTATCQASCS
T1 sequence (P47871 26-477): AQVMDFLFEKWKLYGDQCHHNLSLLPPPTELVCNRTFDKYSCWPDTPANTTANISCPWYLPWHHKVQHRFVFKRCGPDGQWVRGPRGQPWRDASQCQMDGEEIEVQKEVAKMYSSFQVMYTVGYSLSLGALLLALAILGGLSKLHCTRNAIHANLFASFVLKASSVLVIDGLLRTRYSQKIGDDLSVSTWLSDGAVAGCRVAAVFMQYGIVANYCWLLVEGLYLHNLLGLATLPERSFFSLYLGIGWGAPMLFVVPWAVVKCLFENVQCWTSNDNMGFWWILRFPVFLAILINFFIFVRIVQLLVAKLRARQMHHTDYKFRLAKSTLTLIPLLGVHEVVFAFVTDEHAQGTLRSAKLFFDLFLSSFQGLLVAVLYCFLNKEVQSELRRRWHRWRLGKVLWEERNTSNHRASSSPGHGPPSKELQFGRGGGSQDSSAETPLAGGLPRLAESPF

Consider `CC(C)C[C@H](NC(=O)[C@H](Cc1c[nH]c2ccccc12)NC(=O)[C@H](CCCCNC(=O)COCCOCCNC(=O)COCCOCCNC(=O)CC[C@H](NC(=O)CCCCCCCCCCCCCCC(=O)O)C(=O)O)NC(=O)[C@@H](NC(=O)[C@H](Cc1ccccc1)NC(=O)[C@H](CC(=O)O)NC(=O)[C@H](CCC(N)=O)NC(=O)[C@H](C)NC(=O)[C@H](C)NC(=O)[C@H](CCCNC(=N)N)NC(=O)C(C)(C)NC(=O)[C@H](CC(=O)O)NC(=O)[C@H](CC(C)C)NC(=O)[C@H](Cc1ccc(O)cc1)NC(=O)[C@H](CCCCN)NC(=O)[C@H](CO)NC(=O)[C@H](Cc1ccc(O)cc1)NC(=O)[C@H](CC(=O)O)NC(=O)[C@H](CO)NC(=O)[C@@H](NC(=O)[C@H](Cc1ccccc1)NC(=O)[C@@H](NC(=O)CNC(=O)[C@H](CCC(N)=O)NC(=O)C(C)(C)NC(=O)[C@@H](N)Cc1c[nH]cn1)[C@@H](C)O)[C@@H](C)O)C(C)C)C(=O)N[C@@H](CCS(C)(=O)=O)C(=O)N[C@@H](CC(=O)O)C(=O)N[C@H](C(N)=O)[C@@H](C)O` [TP811] (H-H[Aib]QGTFTSDYSKYLD[Aib]RAAQDFVK([AEEA-AEEA-γGlu-C16 diacid])WL[Met(O2)]DT-NH2; N-terminus assumed), for which the concentration for a half-maximal effect (EC50) on human GCGR (cells expressing human GCGR, cAMP production, buffer with or without 20% human serum (not stated which), read-out: GCGR EC50 human) was 0.21 nM; on human GCGR (setting [1]) it was under 5 nM; at human GLP1R (setting [2]) it was 0.26 nM; on human GLP1R (setting [3]), under 5 nM. Besides, the “hGCGR/hGLP1R (hTone)” value at human GCGR was determined as 0.8.

On to `CC(C)C[C@H](NC(=O)[C@H](Cc1ccc(O)cc1)NC(=O)[C@H](CCCCN)NC(=O)[C@H](CO)NC(=O)[C@H](Cc1ccc(O)cc1)NC(=O)[C@H](CC(=O)O)NC(=O)[C@H](CO)NC(=O)[C@@H](NC(=O)[C@H](Cc1ccccc1)NC(=O)[C@@H](NC(=O)CNC(=O)[C@H](CCC(N)=O)NC(=O)C(C)(C)NC(=O)[C@@H](N)Cc1c[nH]cn1)[C@@H](C)O)[C@@H](C)O)C(=O)N[C@@H](CC(=O)O)C(=O)N[C@@H](C)C(=O)N[C@@H](CCCNC(=N)N)C(=O)N[C@@H](C)C(=O)N[C@@H](C)C(=O)N[C@@H](CCCCNC(=O)COCCOCCNC(=O)COCCOCCNC(=O)CC[C@H](NC(=O)CCCCCCCCCCCCCCCCC(=O)O)C(=O)O)C(=O)N[C@@H](CC(=O)O)C(=O)N[C@@H](Cc1ccccc1)C(=O)N[C@H](C(=O)N[C@@H](CCC(N)=O)C(=O)N[C@@H](Cc1c[nH]c2ccccc12)C(=O)N[C@@H](CC(C)C)C(=O)N[C@@H](CCS(C)(=O)=O)C(=O)N[C@@H](CC(=O)O)C(=O)N[C@H](C(=O)O)[C@@H](C)O)C(C)C` [TP736] (H-H[Aib]QGTFTSDYSKYLDARAAK([AEEA-AEEA-γGlu-C18 diacid])DFVQWL[Met(O2)]DT-OH), for which the “hGCGR/hGLP1R (hTone)” value at human GCGR was 2.8. Besides, the concentration giving a half-maximal response (EC50) on human GCGR (setting [1]) and at human GLP1R (setting [3]) was under 5 nM throughout.

Turning to `CC(C)C[C@H](NC(=O)[C@H](Cc1ccc(O)cc1)NC(=O)[C@H](CCCCN)NC(=O)[C@H](CO)NC(=O)[C@H](Cc1ccc(O)cc1)NC(=O)[C@H](CC(=O)O)NC(=O)[C@H](CO)NC(=O)[C@@H](NC(=O)[C@H](Cc1ccccc1)NC(=O)[C@@H](NC(=O)CNC(=O)[C@H](CCC(N)=O)NC(=O)C(C)(C)NC(=O)[C@@H](N)Cc1c[nH]cn1)[C@@H](C)O)[C@@H](C)O)C(=O)N[C@@H](CC(=O)O)C(=O)N[C@@H](C)C(=O)N[C@@H](CCCNC(=N)N)C(=O)N[C@@H](C)C(=O)N[C@@H](C)C(=O)N[C@@H](CCCCNC(=O)COCCOCCNC(=O)COCCOCCNC(=O)CC[C@H](NC(=O)CCCCCCCCCCCCCCCCC(=O)O)C(=O)O)C(=O)N[C@@H](CC(=O)O)C(=O)N[C@@H](Cc1ccccc1)C(=O)N[C@H](C(=O)N[C@@H](CCC(=O)O)C(=O)N[C@@H](Cc1c[nH]c2ccccc12)C(=O)N[C@@H](CC(C)C)C(=O)N[C@@H](CCS(C)(=O)=O)C(=O)N[C@@H](CCCCN)C(=O)N[C@H](C(N)=O)[C@@H](C)O)C(C)C` [TP705] (H-H[Aib]QGTFTSDYSKYLDARAAK([AEEA-AEEA-γGlu-C18 diacid])DFVEWL[Met(O2)]KT-NH2; N-terminus assumed), at human GCGR, the “hGCGR/hGLP1R (hTone)” value was 3.6. Besides, the concentration giving a half-maximal response (EC50) was under 5 nM on human GCGR (setting [1]), 0.41 nM at human GLP1R (setting [2]) and under 5 nM at human GLP1R (setting [3]).

For `CC(C)C[C@H](NC(=O)[C@H](Cc1ccc(O)cc1)NC(=O)[C@H](CCCCN)NC(=O)[C@H](CO)NC(=O)[C@H](Cc1ccc(O)cc1)NC(=O)[C@H](CC(=O)O)NC(=O)[C@H](CO)NC(=O)[C@@H](NC(=O)[C@H](Cc1ccccc1)NC(=O)[C@@H](NC(=O)CNC(=O)[C@H](CCC(N)=O)NC(=O)C(C)(C)NC(=O)[C@@H](N)Cc1c[nH]cn1)[C@@H](C)O)[C@@H](C)O)C(=O)N[C@@H](CC(=O)O)C(=O)N[C@@H](C)C(=O)N[C@@H](CCCNC(=N)N)C(=O)N[C@@H](C)C(=O)N[C@@H](C)C(=O)N[C@@H](CCC(N)=O)C(=O)N[C@@H](CC(=O)O)C(=O)N[C@@H](Cc1ccccc1)C(=O)N[C@H](C(=O)N[C@@H](CCC(N)=O)C(=O)N[C@@H](Cc1c[nH]c2ccccc12)C(=O)N[C@@H](CC(C)C)C(=O)N[C@@H](CCS(C)(=O)=O)C(=O)N[C@@H](CCCCNC(=O)COCCOCCNC(=O)COCCOCCNC(=O)CC[C@H](NC(=O)CCCCCCCCCCCCCCCCC(=O)O)C(=O)O)C(=O)N[C@H](C(N)=O)[C@@H](C)O)C(C)C` [TP602] (H-H[Aib]QGTFTSDYSKYLDARAAQDFVQWL[Met(O2)]K([AEEA-AEEA-γGlu-C18 diacid])T-NH2), the “hGCGR/hGLP1R (hTone)” value on human GCGR turned out to be 6.3. For the same molecule, the half-maximal effective concentration (EC50) on human GCGR (setting [1]) and on human GLP1R (setting [3]) was under 5 nM in each case.

With `CC(C)C[C@H](NC(=O)[C@H](Cc1ccc(O)cc1)NC(=O)[C@H](CCCCN)NC(=O)[C@H](CO)NC(=O)[C@H](Cc1ccc(O)cc1)NC(=O)[C@H](CC(=O)O)NC(=O)[C@H](CO)NC(=O)[C@@H](NC(=O)[C@H](Cc1ccccc1)NC(=O)[C@@H](NC(=O)CNC(=O)[C@H](CCC(N)=O)NC(=O)C(C)(C)NC(=O)[C@@H](N)Cc1c[nH]cn1)[C@@H](C)O)[C@@H](C)O)C(=O)N[C@@H](CC(=O)O)C(=O)N[C@@H](C)C(=O)N[C@@H](CCCNC(=N)N)C(=O)N[C@@H](C)C(=O)N[C@@H](C)C(=O)N[C@@H](Cc1ccc(CNC(=O)COCCOCCNC(=O)COCCOCCNC(=O)CC[C@H](NC(=O)CCCCCCCCCCCCCCCCC(=O)O)C(=O)O)cc1)C(=O)N[C@@H](CC(=O)O)C(=O)N[C@@H](Cc1ccccc1)C(=O)N[C@H](C(=O)N[C@@H](CCC(N)=O)C(=O)N[C@@H](Cc1c[nH]c2ccccc12)C(=O)N[C@@H](CC(C)C)C(=O)N[C@@H](CCS(C)(=O)=O)C(=O)N[C@@](C)(CC(=O)O)C(=O)N[C@H](C(N)=O)[C@@H](C)O)C(C)C` [TP636] (H-H[Aib]QGTFTSDYSKYLDARAA[Phe(4-CH2NH2)]([AEEA-AEEA-γGlu-C18 diacid])DFVQWL[Met(O2)][αMeD]T-NH2; N-terminus assumed), at human GCGR, the “hGCGR/hGLP1R (hTone)” value is 0.2. Also, the figures for the concentration for a half-maximal effect (EC50) at human GCGR (setting [1]), on human GLP1R (setting [2]) and at human GLP1R (setting [3]) were under 5 nM, 0.52 nM and under 5 nM, respectively.
